Reference: patent US11427553B2, “Dihydrooxadiazinones” (Bayer Aktiengesellschaft, priority 2017, dated 2022)

Assays:
human full length PDE3A = human full length PDE3A (Homo sapiens (Human), UniProt Q14432); assay: Assay 4 PDE3A enzyme inhibition (3H-cAMP SPA); assay type: biochemical; conditions: Sf9 cell extract
In short: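 Enzyme: Sf9 extract with overexpressed full-length PDE3A; substrate [8-3H]cAMP, 0.025 μCi/well; 60 min, room temperature, Tris/HCl pH 7.5 buffer with MgCl2, EDTA, BSA.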

human full length PDE3B = human full length PDE3B (Homo sapiens (Human), UniProt Q13370); assay: Assay 5 PDE3B enzyme inhibition (3H-cAMP SPA); assay type: biochemical; conditions: Sf9 cell extract
Sequence of human full length PDE3B (Q13370 whole entry): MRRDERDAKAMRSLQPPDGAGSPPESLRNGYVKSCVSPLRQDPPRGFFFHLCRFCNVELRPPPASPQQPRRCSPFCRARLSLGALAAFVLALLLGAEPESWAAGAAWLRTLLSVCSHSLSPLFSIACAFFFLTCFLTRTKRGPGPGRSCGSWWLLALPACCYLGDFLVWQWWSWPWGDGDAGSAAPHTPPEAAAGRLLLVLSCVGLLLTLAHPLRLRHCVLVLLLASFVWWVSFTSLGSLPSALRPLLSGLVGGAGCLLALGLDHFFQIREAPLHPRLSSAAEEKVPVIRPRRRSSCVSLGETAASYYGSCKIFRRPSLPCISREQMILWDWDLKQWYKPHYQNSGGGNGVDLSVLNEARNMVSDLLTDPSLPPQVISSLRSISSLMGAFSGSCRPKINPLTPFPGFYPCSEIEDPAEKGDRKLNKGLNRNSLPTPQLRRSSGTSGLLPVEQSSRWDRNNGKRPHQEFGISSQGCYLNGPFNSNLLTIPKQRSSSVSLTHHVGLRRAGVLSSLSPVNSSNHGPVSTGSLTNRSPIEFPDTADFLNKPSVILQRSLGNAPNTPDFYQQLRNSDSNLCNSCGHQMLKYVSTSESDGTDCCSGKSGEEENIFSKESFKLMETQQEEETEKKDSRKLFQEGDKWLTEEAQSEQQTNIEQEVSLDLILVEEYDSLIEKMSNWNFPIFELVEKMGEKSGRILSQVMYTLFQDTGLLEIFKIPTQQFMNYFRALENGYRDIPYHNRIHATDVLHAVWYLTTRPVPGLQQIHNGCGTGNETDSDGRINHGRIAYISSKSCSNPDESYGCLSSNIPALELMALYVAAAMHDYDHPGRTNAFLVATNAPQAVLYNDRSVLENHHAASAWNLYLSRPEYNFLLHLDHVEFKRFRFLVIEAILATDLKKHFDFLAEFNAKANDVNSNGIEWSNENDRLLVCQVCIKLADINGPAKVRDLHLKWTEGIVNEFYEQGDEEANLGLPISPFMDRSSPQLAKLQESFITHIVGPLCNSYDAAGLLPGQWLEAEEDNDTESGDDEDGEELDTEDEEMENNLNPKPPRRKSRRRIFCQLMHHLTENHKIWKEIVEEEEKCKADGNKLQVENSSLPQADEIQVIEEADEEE
In short: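 Inhibition was measured by scintillation proximity using [8-3H]adenosine 3′,5′-cyclic phosphate as substrate and full-length human PDE3B from an Sf9 overexpression extract, run one hour at room temperature at pH 7.5.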

HeLa cells = assay: Assay 1 cell proliferation measurement (CTG, 72 h), HeLa; assay type: cell-based, human; conditions: Homo sapiens, HeLa; Assay 1, 72 h, Cell Titer Glo; read-out: HeLa IC50 [nM] (Cervical cancer)
In short: (§1)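 CellTiter-Glo luminescence was read at treatment start (0 h plate) and after 72 h compound exposure at 37 °C. Doses were 2.5-fold steps, ten concentrations, top 100 nM final, 0.3% DMSO. Growth inhibition was scaled between 0 h and vehicle values, and IC50 was obtained by 4-parameter fitting.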

SK-MEL-3 cells = assay: Assay 1 cell proliferation measurement (CTG, 72 h), SK-MEL-3; assay type: cell-based, human; conditions: Homo sapiens, SK-MEL3; Assay 1, 72 h, Cell Titer Glo; read-out: SK-MEL-3 IC50 [nM] (melanoma)
In short: as §1

Sequence of human full length PDE3A (Q14432 whole entry): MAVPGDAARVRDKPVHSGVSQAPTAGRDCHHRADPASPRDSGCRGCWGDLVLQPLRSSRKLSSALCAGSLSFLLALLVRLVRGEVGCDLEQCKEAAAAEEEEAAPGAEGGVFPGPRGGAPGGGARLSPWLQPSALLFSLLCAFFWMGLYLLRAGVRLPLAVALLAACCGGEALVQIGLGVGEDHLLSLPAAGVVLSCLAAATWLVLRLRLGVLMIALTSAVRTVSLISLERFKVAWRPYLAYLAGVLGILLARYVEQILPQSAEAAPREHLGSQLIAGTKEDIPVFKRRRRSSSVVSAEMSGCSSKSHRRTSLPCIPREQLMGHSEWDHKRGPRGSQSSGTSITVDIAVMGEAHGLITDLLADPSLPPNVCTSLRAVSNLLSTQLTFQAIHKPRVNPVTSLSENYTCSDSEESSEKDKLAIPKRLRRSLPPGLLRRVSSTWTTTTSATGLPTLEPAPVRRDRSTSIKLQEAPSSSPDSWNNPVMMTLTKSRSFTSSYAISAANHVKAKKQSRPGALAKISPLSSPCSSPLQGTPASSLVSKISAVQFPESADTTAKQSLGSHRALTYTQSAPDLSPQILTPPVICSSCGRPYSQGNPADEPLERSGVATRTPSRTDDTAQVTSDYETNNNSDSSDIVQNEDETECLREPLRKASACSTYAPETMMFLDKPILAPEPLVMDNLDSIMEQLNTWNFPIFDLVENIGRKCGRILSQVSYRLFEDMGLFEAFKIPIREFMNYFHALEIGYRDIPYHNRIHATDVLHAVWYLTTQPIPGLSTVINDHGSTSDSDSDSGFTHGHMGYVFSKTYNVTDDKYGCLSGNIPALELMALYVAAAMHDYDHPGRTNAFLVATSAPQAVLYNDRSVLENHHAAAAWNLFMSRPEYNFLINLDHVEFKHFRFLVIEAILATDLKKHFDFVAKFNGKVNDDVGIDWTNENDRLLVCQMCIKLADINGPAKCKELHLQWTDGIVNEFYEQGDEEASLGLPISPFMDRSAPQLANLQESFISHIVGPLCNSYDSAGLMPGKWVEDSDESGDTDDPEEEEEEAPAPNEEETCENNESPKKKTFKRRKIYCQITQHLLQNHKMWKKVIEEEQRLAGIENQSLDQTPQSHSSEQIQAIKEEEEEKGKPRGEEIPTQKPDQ

Structure (SMILES) | IC50 (human full length PDE3A) [nM] | IC50 (human full length PDE3B) [nM] | IC50 (HeLa cells) [nM] | IC50 (SK-MEL-3 cells) [nM]
CC(C)(C)OC(=O)NCCNc1ccc(C2=NNC(=O)OC2)cc1C(F)(F)F [Intermediate 67, tert-Butyl {2-[4-(2-oxo-3,6-dihydro-2H-1,3,4-oxadiazin-5-yl)-2-(trifluoromethyl)anilino]ethyl} carbamate] | 6 | 7 | > 100 | > 100
CC(C)CCNc1ccc(C2=NNC(=O)OC2)cc1C(F)(F)F [Example 220, 5-{4-[(3-Methylbutyl)amino]-3-(trifluoromethyl)phenyl}-3,6-dihydro-2H-1,3,4-oxadiazin-2-one] | 90 | 131 | 6 | 14
C=C(C)c1ccc(C2=NNC(=O)OC2)cc1C(F)(F)F [Example 147, 5-[4-(Prop-1-en-2-yl)-3-(trifluoromethyl)phenyl]-3,6-dihydro-2H-1,3,4-oxadiazin-2-one] | 140 | 310 | 22 | 39
O=C1NN=C(c2ccc(N3CCC(F)CC3)c(F)c2)CO1 [Example 6, 5-[3-Fluoro-4-(4-fluoropiperidin-1-yl)phenyl]-3,6-dihydro-2H-1,3,4-oxadiazin-2-one] | 100 | 110 | 5 | 9
Cc1cc(C2=NNC(=O)OC2)ccc1-c1cncnc1 [Example 14, 5-[3-Methyl-4-(pyrimidin-5-yl)phenyl]-3,6-dihydro-2H-1,3,4-oxadiazin-2-one] | 63 | 71 | 49 | 64
C[C@@H]1OC(=O)NN=C1c1ccc(F)c(C(F)(F)F)c1 [Intermediate 75, (6S)-5-(-[(4-Fluoro-3-(trifluoromethyl)phenyl)-)]-6-methyl-3,6-dihydro-2H-1,3,4-oxadiazin-2-one] | 240 | 710 | 22 | 45
O=C1NN=C(c2ccc(C3=CCCC3)c(C(F)(F)F)c2)CO1 [Example 150, 5-[4-(Cyclopent-1-en-1-yl)-3-(trifluoromethyl)phenyl]-3,6-dihydro-2H-1,3,4-oxadiazin-2-one] | 240 | 250 | 2 | 5
Cn1cnc2ccc(-c3ccc(C4=NNC(=O)OC4)cc3C(F)(F)F)cc21 [Example 73, 5-[4-(1-Methyl-1H-benzimidazol-6-yl)-3-(trifluoromethyl)phenyl]-3,6-dihydro-2H-1,3,4-oxadiazin-2-one] | 18 | 41 | 25 | 46
COc1cc(-c2ccc(C3=NNC(=O)OC3)cc2F)ccn1 [Example 95, 5-[3-Fluoro-4-(2-methoxypyridin-4-yl)phenyl]-3,6-dihydro-2H-1,3,4-oxadiazin-2-one] | 37 | 79 | 33 | > 100
O=C1NN=C(c2cc(F)c(-c3cnn(C(F)F)c3)c(C(F)(F)F)c2)CO1 [Example 193, 5-{4-[1-(Difluoromethyl)-1H-pyrazol-4-yl]-3-fluoro-5-(trifluoromethyl)phenyl}-3,6-dihydro-2H-1,3,4-oxadiazin-2-one] | 195 | 215 | 5 | 9
O=C1NN=C(c2ccc(-c3cc(F)ccc3F)c(C(F)(F)F)c2)CO1 [Example 59, 5-[2′,5′-Difluoro-2-(trifluoromethyl)biphenyl-4-yl]-3,6-dihydro-2H-1,3,4-oxadiazin-2-one] | 150 | 250 | 18 | 38
N#Cc1cc(C2=NNC(=O)OC2)cc(Cl)c1N1CCOCC1 [Example 23, 3-Chloro-2-(morpholin-4-yl)-5-(2-oxo-3,6-dihydro-2H-1,3,4-oxadiazin-5-yl)benzonitrile] | 380 | 270 | 45 | > 100
Cc1cc(C2=NNC(=O)OC2)ccc1-c1ccnn1C [Example 29, 5-[3-Methyl-4-(1-methyl-1H-pyrazol-5-yl)phenyl]-3,6-dihydro-2H-1,3,4-oxadiazin-2-one] | 300 | 160 | 46 | > 100
O=C1NN=C(c2ccc(-c3cccc(F)c3)c(C(F)(F)F)c2)CO1 [Example 138, 5-[3′-Fluoro-2-(trifluoromethyl)biphenyl-4-yl]-3,6-dihydro-2H-1,3,4-oxadiazin-2-one] | 150 | 200 | 7 | 19
O=C1NN=C(c2ccc(-c3ccc4cc[nH]c4c3)c(C(F)(F)F)c2)CO1 [Example 62, 5-[4-(1H-Indol-6-yl)-3-(trifluoromethyl)phenyl]-3,6-dihydro-2H-1,3,4-oxadiazin-2-one] | 85 | 180 | 6 | 14
COCCCNc1ccc(C2=NNC(=O)OC2)cc1C(F)(F)F [Example 214, 5-{4-[(3-Methoxypropyl)amino]-3-(trifluoromethyl)phenyl}-3,6-dihydro-2H-1,3,4-oxadiazin-2-one] | 59 | 73 | 1 | 2
Cc1nc2cc(-c3ccc(C4=NNC(=O)OC4)cc3C(F)(F)F)ccc2[nH]1 [Example 326, 5-[4-(2-methyl-1H-benzimidazol-5-yl)-3-(trifluoromethyl)phenyl]-3,6-dihydro-2H-1,3,4-oxadiazin-2-one] | 17 | 30 | > 100 | > 100
O=C1NN=C(c2ccc(-c3ccc(F)c(F)c3F)c(F)c2)CO1 [Example 99, 5-(2,2′,3′,4′-Tetrafluoro[1,1′-biphenyl]-4-yl)-3,6-dihydro-2H-1,3,4-oxadiazin-2-one] | 88 | 100 | 5 | 11
Nc1ccc(-c2ccc(C3=NNC(=O)OC3)cc2C(F)(F)F)cc1 [Example 34, 5-[4′-Amino-2-(trifluoromethyl)biphenyl-4-yl]-3,6-dihydro-2H-1,3,4-oxadiazin-2-one] | 100 | 100 | 3 | 765
CC1OC(=O)NN=C1c1ccc(N2CCOCC2)cc1 (racemic) [Example 20, (rac)-6-Methyl-5-[4-(morpholin-4-yl)phenyl]-3,6-dihydro-2H-1,3,4-oxadiazin-2-one] | 200 | 100 | 15 | 41
O=C1NN=C(c2ccc(-c3cc(F)c(F)c(F)c3)c(C(F)(F)F)c2)CO1 [Example 58, 5-[3′,4′,5′-Trifluoro-2-(trifluoromethyl)biphenyl-4-yl]-3,6-dihydro-2H-1,3,4-oxadiazin-2-one] | 310 | 570 | 40 | 64
O=C1NN=C(c2ccc(NC3COC3)c(C(F)(F)F)c2)CO1 [Example 262, 5-{4-[(Oxetan-3-yl)amino]-3-(trifluoromethyl)phenyl}-3,6-dihydro-2H-1,3,4-oxadiazin-2-one] | 18 | 20 | 2 | 5
Cc1cc(C#N)ccc1-c1ccc(C2=NNC(=O)OC2)cc1F [Example 163, 2′-Fluoro-2-methyl-4′-(2-oxo-3,6-dihydro-2H-1,3,4-oxadiazin-5-yl)[1,1′-biphenyl]-4-carbonitrile] | 35 | 51 | 8 | 14
CCCNc1ccc(C2=NNC(=O)OC2)cc1C(F)(F)F [Example 69, 5-[4-(Propylamino)-3-(trifluoromethyl)phenyl]-3,6-dihydro-2H-1,3,4-oxadiazin-2-one] | 31 | 47 | 1 | 1
O=C1NN=C(c2ccc(NC3CCOCC3)c(C(F)(F)F)c2)CO1 [Example 205, 5-{4-[(Oxan-4-yl)amino]-3-(trifluoromethyl)phenyl}-3,6-dihydro-2H-1,3,4-oxadiazin-2-one] | 53 | 123 | 4 | 5
COc1ccccc1-c1ccc(C2=NNC(=O)O[C@H]2C)cc1C(F)(F)F [Example 180, (6S)-5-[2′-Methoxy-2-(trifluoromethyl)[1,1′-biphenyl]-4-yl]-6-methyl-3,6-dihydro-2H-1,3,4-oxadiazin-2-one] | 250 | 250 | 36 | 48
CC(C)n1cc(-c2ccc(C3=NNC(=O)OC3)cc2C(F)F)cn1 [Example 263, 5-{3-(Difluoromethyl)-4-[1-(propan-2-yl)-1H-pyrazol-4-yl]phenyl}-3,6-dihydro-2H-1,3,4-oxadiazin-2-one] | 50 | 46 | 9 | 32
O=C1NN=C(c2ccc(-c3cccc(O)c3)c(F)c2)CO1 [Example 104, 5-(2-Fluoro-3′-hydroxy[1,1′-biphenyl]-4-yl)-3,6-dihydro-2H-1,3,4-oxadiazin-2-one] | 35 | 58 | 37 | 17
